{"source": "patent US20180200392A1", "about": "“DETECTION AND TREATMENT OF RENAL CELL CARCINOMA WITH A SLC6A3 LIGAND LINKED TO A LABEL, CYTOTOXIC OR IMMUNO[…]” (Akuru Pharma AB, priority 2015, published 2018)", "key": {"[1]": {"system": "primary ccRCC cells", "description": "(§1) Uptake experiments were performed in cells cultivated in 12-well plates at 37° C. The cells of interest were seeded at 80.000 cells/well 48 h before the uptake experiment was performed. The wells were washed in 1×PBS, followed by a wash in 1 ml of assay buffer (Hanks Balanced Salt Solution (HBSS) with CaCl2 and MgCl2, without phenol red supplemented with 10 mM HEPES, pH 7.4) at 37° C. and then incubated with 0.5 ml of buffer for 5 min. […] All uptake experiments were stopped by removing the uptake buffer and adding 1 ml of ice-cold assay buffer to each well and immediately aspirating the buffer and washing three additional times with 1 ml of ice-cold buffer. The incorporated radioactivity was extracted by solubilising the cells with 1% Triton-X for 1 h at R.T, 6 ml of scintillation fluid was thereafter added. The amount of radioactivity was measured with a Tri-carb 2810TR liquid scintillation analyzer (Perkin Elmer)."}, "[2]": {"system": "ccRCC cell lines", "settings": "7 nM [3H]dopamine; uptake correlates with SLC6A3 expression level", "description": "as §1"}, "[3]": {"settings": "in vivo; cited from earlier work"}, "[4]": {"system": "KMRC-3 cells", "assay": "SPECT/CT imaging of mice with orthotopically injected KMRC-3 ccRCC cells", "assay_type": "in vivo", "settings": "5.36 MBq injected 13 weeks after cell injection, imaged after 1 h and 35 min, FIG. 4", "protocol": "FIG. 4: SPECT/CT images of a mouse injected with 5.36 MBq (^123I-Ioflupan).\nccRCC cell line KMRC-3 cells were injected orthotopically in mice, 2*10^6 cells in 40 ul PBS. After 13 weeks the mice were injected with 5.36 MBq ^123I-Ioflupan and analysed by SPECT/CT imaging after 1 h and 35 min."}, "[5]": {"biological_target": "SLC6A3 (Homo sapiens, UniProt Q01959)", "sequence (Q01959 whole entry)": "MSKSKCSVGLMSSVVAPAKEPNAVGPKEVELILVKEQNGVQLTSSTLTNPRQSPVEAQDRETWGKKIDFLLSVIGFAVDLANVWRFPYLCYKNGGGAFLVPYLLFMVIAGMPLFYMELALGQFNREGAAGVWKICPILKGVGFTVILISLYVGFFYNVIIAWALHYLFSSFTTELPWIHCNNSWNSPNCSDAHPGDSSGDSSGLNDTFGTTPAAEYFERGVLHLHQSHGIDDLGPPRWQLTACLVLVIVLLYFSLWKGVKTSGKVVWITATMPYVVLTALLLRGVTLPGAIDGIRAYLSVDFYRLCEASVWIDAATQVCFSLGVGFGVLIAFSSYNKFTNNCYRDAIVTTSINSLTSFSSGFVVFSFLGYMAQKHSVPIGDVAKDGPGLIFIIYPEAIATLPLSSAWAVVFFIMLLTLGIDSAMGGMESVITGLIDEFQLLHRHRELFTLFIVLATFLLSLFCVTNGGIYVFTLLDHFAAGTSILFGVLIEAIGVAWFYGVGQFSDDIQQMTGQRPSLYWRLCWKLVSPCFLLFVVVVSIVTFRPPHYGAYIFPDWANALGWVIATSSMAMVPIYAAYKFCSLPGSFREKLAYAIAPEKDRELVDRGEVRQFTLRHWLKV", "assay": "[3H]dopamine uptake in ccRCC cell lines in the presence of specific SLC6A3 inhibitors", "settings": "GBR12935 30 nM (SKRC10); GBR12909 10-90 nM (KMRC3, SNU-349); 1 h pre-incubation, 5 min uptake; FIG. 8 A-C", "description": "Data presented as mean±SEM.\nas §1"}}, "data": [{"smiles": "NCCc1ccc(O)c(O)c1", "note": "[[H^3]dopamine]", "values": [{"measurement": "uptake of [3H]dopamine by primary ccRCC cells compared to primary normal cortex cell", "setting": "[1]; 7 nM [3H]dopamine, 1-20 min, 37° C., FIG. 3 and FIG. 7A", "value": "enhanced uptake"}, {"measurement": "uptake of [3H]dopamine by ccRCC cell lines", "setting": "[2]", "value": "take up"}]}, {"smiles": "Fc1ccc(C(OCCC2CCN(Cc3ccc(I)cc3)CC2)c2ccc(F)cc2)cc1", "note": "[FMIP, 4-(2-(bis(4-fluorophenyl)methoxy)ethyl)-1-(4-iodobenzyl)piperidine]", "values": [{"measurement": "passage of the blood-brain barrier", "setting": "[3]", "value": "does not pass the blood-brain barrier"}]}, {"smiles": "NCCc1ccc(O)c(O)c1", "note": "[unlabelled dopamine, dopamine]", "values": [{"measurement": "[3H]dopamine uptake of primary ccRCC tumor cells in response to competitive unlabelled dopamine", "setting": "[1]; 7 nM [3H]dopamine with 2 uM or 20 uM unlabelled dopamine for 5 min, FIG. 7A-B", "value": "decreased uptake"}]}, {"smiles": "COC(=O)[C@@H]1C2CCC(C[C@@H]1c1ccc(I)cc1)N2CCCF", "note": "(stereo partly drawn) [Ioflupane (^123I), [^123I] N-ω-fluoropropyl-2β-carbomethoxy-3β-(4-iodophenyl)nortropane]", "values": [{"measurement": "uptake in contralateral kidney lacking injected tumor cells (SPECT/CT)", "setting": "[4]", "value": "no enhanced uptake"}, {"measurement": "uptake in kidney orthotopically injected with KMRC-3 cells (SPECT/CT)", "setting": "[4]", "value": "clearly display enhanced uptake"}, {"measurement": "uptake in contralateral kidney lacking injected tumor cells (SPECT/CT)", "setting": "[4]; listed as 123I-Ioflupan", "value": "no signal could be detected"}, {"measurement": "uptake in kidney orthotopically injected with KMRC-3 cells (SPECT/CT)", "setting": "[4]; listed as 123I-Ioflupan", "value": "uptake"}]}, {"smiles": "c1ccc(CCCN2CCN(CCOC(c3ccccc3)c3ccccc3)CC2)cc1", "note": "[GBR12935]", "values": [{"measurement": "amount of [3H]-dopamine taken up by ccRCC cells in presence of inhibitor", "setting": "[5]", "value": "clearly diminish"}]}]}
